Measured values as given in patent US20250262194A1, “PHARMACEUTICAL FOR TREATING OR PREVENTING CANCER” (CHUGAI SEIYAKU KABUSHIKI KAISHA, priority 2022, published 2025).
Counter-ions that a name gives are not always drawn.

Experiments:
[1] = system: KRAS-G12C mutation-positive human cancer cell line MIA PaCa-2; assay: In vivo antitumor activity, MIA PaCa-2 xenograft mice (Example 3); design: species or system nude mice; details: sodium salt of compound 1 0.25 mg/kg and/or sotorasib 10 mg/kg, orally once a day for 14 days
Procedure: (§7) This evaluation employed xenograft mice in which a KRAS-G12C mutation-positive human cancer cell line MIA PaCa-2 or NCI-H2122 (both, ATCC) was transplanted. The xenograft mice were prepared by subcutaneously transplanting 5×10^6 human cells per mouse to nude mice. After cell transplantation, the mice were grouped (n=8) when a tumor volume reached 200 to 340 mm^3.
The sodium salt of the compound 1 was dissolved in 10% DMSO/10% Cremophor EL/15% HP-β-CD (2-hydroxypropyl-β-cyclodextrin)/15% polyethylene glycol-400/50% injectable distilled water (solvent A) for administration. […] The sodium salt of the compound 1 and the solvent B were administered at 0.25 mg/kg and 20 ml/kg, respectively, to the single-agent administration group of the sodium salt of the compound 1. […] The solvent A and the solvent B were administered at 20 ml/kg and 20 ml/kg, respectively, to a control group. […] After the completion of the administration period, an observation period of 22 days was established.
The tumor volumes of the mice were calculated according to the expression (4) given below.
The body weights of the mice were measured.

[2] = system: KRAS-G12C mutation-positive human cancer cell line NCI-H2122; assay: In vivo antitumor activity, NCI-H2122 xenograft mice (Example 3); design: species or system nude mice; details: sodium salt of compound 1 0.25 or 0.75 mg/kg and/or adagrasib 100 mg/kg, orally once a day for 21 days
Procedure: as §7
The solvent A and the solvent C were administered at 10 ml/kg and 20 ml/kg, respectively, to a control group.
The tumor volumes of the mice were calculated according to the expression (4) given below. […] The ordinates of graphs (a) and (c) of FIG. 17 depict the tumor volumes (mm^3), and the abscissas thereof depict the number of days after cell transplantation.
The body weights of the mice were measured. […] The ordinates of graphs (b) and (d) of FIG. 17 depict the relative body weight change (%), and the abscissas thereof depict the number of days after cell transplantation.

[3] = system: KRAS mutation-positive human cancer cell line NCI-H441; assay: In vivo antitumor activity, NCI-H441-transplanted models (Example 4); design: species or system nude mice; details: sodium salt of compound 1 0.0625 mg/kg orally once a day for 10 days and/or bevacizumab 2.5 mg/kg intraperitoneal twice a week
Procedure: (§8) The cells of each line were subcutaneously transplanted at 5×10^6 per mouse to the mice. The mice were grouped (n=5) when a tumor volume reached 200 to 300 mm^3.
Administration to the NCI-H441-transplanted models was performed as described below. […] The solvent A was administered at 20 ml/kg to a control group.

[4] = system: KRAS mutation-positive human cancer cell line OV56; assay: In vivo antitumor activity, OV56-transplanted models (Example 4); design: species or system SCID mice; details: sodium salt of compound 1 0.25 mg/kg orally once a day for 10 days and/or bevacizumab 2.5 mg/kg intraperitoneal twice a week
Procedure: as §8
Administration to the OV56-transplanted models was performed as described below. […] The solvent A and physiological saline were administered at 20 ml/kg and 10 ml/kg, respectively, to a control group.

[5] = system: KRAS mutation-positive human cancer cell line NCI-H1373; assay: In vivo antitumor activity, NCI-H1373-transplanted models (Example 5); design: species or system nude mice; details: sodium salt of compound 1 0.25 mg/kg orally once a day and/or TNO155 10 mg/kg orally twice a day, 30 days
Procedure: (§1) Use in combination of the sodium salt of the compound 1 and TNO155 was evaluated for its in vivo antitumor activity using nude mice in which any of KRAS mutation-positive human cancer cell lines NCI-H1373, NCI-H358 and NCI-H441 (all, ATCC) was transplanted. The NCI-H1373 cells, the NCI-H358 cells, and the NCI-H441 cells were subcutaneously transplanted at 5×10^6, 1×10^7, and 5×10^6, respectively, per mouse to the mice. The mice were grouped (n=5) when a tumor volume reached approximately 150 to 300 mm^3.
(§2) The NCI-H1373-, NCI-H358- or NCI-H441-transplanted models received the single-agent administration or combined administration of the sodium salt of the compound 1 and TNO155. The sodium salt of the compound 1 was dissolved in solvent A for administration. TNO155 was diluted with 0.5% Tween 80 and 0.5% methyl cellulose prepared with injectable distilled water (solvent D) for administration.
Administration to the NCI-H1373-transplanted models was performed as described below. The sodium salt of the compound 1 and the solvent D were administered at 0.25 mg/kg and 10 ml/kg, respectively, to the single-agent administration group of the sodium salt of the compound 1. […]
(§3) The tumor volumes of the mice were calculated according to the expression (4). […]

[6] = system: KRAS mutation-positive human cancer cell line NCI-H358; assay: In vivo antitumor activity, NCI-H358-transplanted models (Example 5); design: species or system nude mice; details: sodium salt of compound 1 0.25 mg/kg orally once a day and/or TNO155 5 mg/kg orally twice a day, 21 days
Procedure: as §1, §2
Administration to the NCI-H358-transplanted models was performed as described below. The sodium salt of the compound 1 and the solvent D were administered at 0.25 mg/kg and 10 ml/kg, respectively, to the single-agent administration group of the sodium salt of the compound 1. TNO155 and the solvent A were administered at 5 mg/kg and 10 ml/kg, respectively, to the single-agent administration group of TNO155. […]
as §3

[7] = system: KRAS mutation-positive human cancer cell line NCI-H441; assay: In vivo antitumor activity, NCI-H441-transplanted models (Example 5); design: species or system nude mice; details: sodium salt of compound 1 0.125 or 0.25 mg/kg orally once a day and/or TNO155 5 or 10 mg/kg orally twice a day, 13 days
Procedure: as §1, §2
Administration to the NCI-H441-transplanted models was performed as described below. The sodium salt of the compound 1 and the solvent D were administered at 0.125 mg/kg or 0.25 mg/kg and 10 ml/kg, respectively, to the single-agent administration group of the sodium salt of the compound 1. […]
as §3

[8] = system: KRAS mutation-positive mouse colon cancer cell line CT26; assay: In vivo antitumor activity, CT26-transplanted models (Example 6); design: species or system BALB/C mice; details: sodium salt of compound 1 1 mg/kg orally once a day and/or anti-PD-L1 antibody 10 mg/kg intravenous twice a week, 21 days
Procedure: (§4) Use in combination of the sodium salt of the compound 1 and an anti-PD-L1 antibody was evaluated for its in vivo antitumor activity using BALB/C mice in which a KRAS mutation-positive mouse colon cancer cell line CT26 (Crown Bioscience) was transplanted and C57BL/6J mice in which a KRAS mutation-positive mouse lung cancer tissue slice mLU6054 (Crown Bioscience) was transplanted. The CT26 cells and the mLU6054 tissue slice were subcutaneously transplanted at 5×10^5 and a diameter of […], respectively, per mouse to the mice. The mice were grouped (n=8) when a tumor volume reached approximately 60 to 85 mm^3.
(§5) The CT26- or mLU6054-transplanted models received the single-agent administration or combined administration of the sodium salt of the compound 1 and the anti-PD-L1 antibody. The sodium salt of the compound 1 was dissolved in solvent E for administration. The anti-PD-L 1 antibody was diluted with PBS for administration.
(§6) Administration to the CT26- or mLU6054-transplanted models was performed as described below. The sodium salt of the compound 1 and PBS were administered at 1 mg/kg and 10 ml/kg, respectively, to the single-agent administration group of the sodium salt of the compound 1. […]
as §3

[9] = system: KRAS mutation-positive mouse lung cancer tissue slice mLU6054; assay: In vivo antitumor activity, mLU6054-transplanted models (Example 6); design: species or system C57BL/6J mice; details: sodium salt of compound 1 1 mg/kg orally once a day and/or anti-PD-L1 antibody 10 mg/kg intravenous twice a week, 21 days
Procedure: as §4, §5, §6, §3

[10] = system: phosphorylation of MEK and ERK and binding between KRAS and GTP within human cancer cells (NCI-H2122, NCI-H1373, NCI-H441, HPAC); assay: In vitro RAS signal inhibitory activity evaluation (Western blot); details: for attenuation of inhibition of pMEK and pERK by lapse of time (Western blot, FIGS. 2 and 3): cells recovered after 4, 24 or 72 hours, single-agent or combined treatment; for inhibition of pMEK, pERK, DUSP4 and DUSP6 (Western blot, FIGS. 2 and 3): 3, 10 or 30 nmol/L compound 1, 1000 nmol/L TNO155, 100 nmol/L GDC-1971
Procedure: The human cancer cells used were KRAS mutation-positive human lung cancer cell lines NCI-H2122 (KRAS-G12C mutation), NCI-H1373 (KRAS-G12C mutation), NCI-H441 (KRAS-G12V mutation) and HPAC (KRAS-G12D) (all, ATCC). These cells were inoculated to a three-dimensional culture plate PrimeSurface (Sumitomo Bakelite Co., Ltd.) containing a medium. The plate inoculated with the cells was cultured at 37° C. in a 5% carbon dioxide incubator for 24 hours. […] The plate thus subjected to single-agent treatment or combined treatment was cultured at 37° C. in a 5% carbon dioxide incubator. After a lapse of 4 hours, 24 hours or 72 hours, the cells were recovered. The recovered cells were lysed with Cell Lysis Buffer (Cell Signaling Technology, Inc.) containing protease and phosphatase inhibitors (Thermo Fisher Scientific Inc.) to obtain a protein solution.
RAS-GTP, an activated form of RAS, was recovered from a portion of the obtained protein solution using Active Ras Pull-Down and Detection Kit (Thermo Fisher Scientific Inc.). SDS-PAGE was carried out using the obtained RAS-GTP concentrated solution and the protein solution, and migrated proteins were transferred to a PVDF membrane using Trans-Blot Turbo Transfer System (Bio-Rad Laboratories, Inc.). After blocking, the PVDF membrane was reacted with a primary antibody and a secondary antibody in this order. The chemiluminescence of protein bands was caused with Chemi-lumi One Super (Nacalai Tesque, Inc.). The bands were detected with ChemiDoc Touch Imaging System (Bio-Rad Laboratories, Inc.).
“KRAS-GTP” depicts KRAS bound with GTP. “pMEK” and “pERK” depict phosphorylated MEK and ERK, respectively.

SMILES: CNS(=O)(=O)[N]([Na+])c1nccc(Cc2cc(C(N)=O)c(Nc3ccc(C4CC4)cc3F)c(F)c2F)c1F [sodium salt of the compound 1]
- tumor volume compared with the control group (FIG. 17a) [1]: suppressed increase in tumor volume
- tumor volume compared with the control group (FIG. 17c) [2]: suppressed increase in tumor volume
- tumor volume compared with the control group (FIG. 18a) [3]: suppressed increase in tumor volume
- tumor volume compared with the control group (FIG. 18b) [4]: suppressed increase in tumor volume
- tumor volume compared with the control group (FIG. 19A) [5]: suppressed increase in tumor volume
- tumor volume compared with the control group (FIG. 19B) [6]: suppressed increase in tumor volume
- tumor volume compared with the control group (FIG. 19C) [7]: suppressed increase in tumor volume
- tumor volume compared with the control group (FIG. 20a) [8]: suppressed increase in tumor volume
- tumor volume compared with the control group (FIG. 20b) [9]: suppressed increase in tumor volume

SMILES: N[C@@H]1c2ccccc2OC12CCN(c1cnc3c(N4CCCc5ncccc54)n[nH]c3n1)CC2 [GDC-1971, (R)-1′-(3-(3,4-dihydro-1,5-naphtyridin-1(2H)-yl)-1H-pyrazolo[3,4-b]pyridin-6-yl)-3H-spiro[benzofuran-2,4′-piperidin]-3-amine]
- attenuation of inhibition of pMEK and pERK by lapse of time (Western blot, FIGS. 2 and 3) [10]: tended to be attenuated as time passed
- inhibition of pMEK, pERK, DUSP4 and DUSP6 (Western blot, FIGS. 2 and 3) ([10]; single-agent treatment): inhibited pMEK, pERK, DUSP4 and DUSP6

SMILES: C[C@@H]1OCC2(CCN(c3cnc(Sc4ccnc(N)c4Cl)c(N)n3)CC2)[C@@H]1N [TNO155, (3S,4S)-8-(6-amino-5-((2-amino-3-chloropyridin-4-yl)thio)pyrazin-2-yl)-3-methyl-2-oxa-8-azaspiro[4.5]decan-4-amine, reference compound]
- tumor volume compared with the control group (FIG. 19A) [5]: suppressed increase in tumor volume
- tumor volume compared with the control group (FIG. 19B) [6]: suppressed increase in tumor volume
- tumor volume compared with the control group (FIG. 19C) [7]: suppressed increase in tumor volume
- attenuation of inhibition of pMEK and pERK by lapse of time (Western blot, FIGS. 2 and 3) [10]: tended to be attenuated as time passed
- inhibition of pMEK, pERK, DUSP4 and DUSP6 (Western blot, FIGS. 2 and 3) ([10]; single-agent treatment): inhibited pMEK, pERK, DUSP4 and DUSP6

SMILES: CNS(=O)(=O)Nc1nccc(Cc2cc(C(N)=O)c(Nc3ccc(C4CC4)cc3F)c(F)c2F)c1F [compound 1, 2-(4-cyclopropyl-2-fluoro-anilino)-3,4-difluoro-5-[[3-fluoro-2-(methylsulfamoylamino)-4-pyridyl]methyl]benzamide]
- attenuation of inhibition of pMEK and pERK by lapse of time (Western blot, FIGS. 2 and 3) [10]: tended to be attenuated as time passed
- inhibition of pMEK and pERK (Western blot, FIG. 1) ([10]; single-agent treatment, after 4 hours and 24 hours, 300 nmol/L compound 1): inhibited pMEK and pERK
- inhibition of pMEK, pERK, DUSP4 and DUSP6 (Western blot, FIGS. 2 and 3) ([10]; single-agent treatment): inhibited pMEK, pERK, DUSP4 and DUSP6
